≈ marks a conversion by molar mass, not a printed value. Where “and” joins values, the source holds several entries; their conditions need not be identical. Equal values may be shown once.
Columns and labels:
[1] = target: T1, farnesyl-protein transferase(FPTase) (Rattus norvegicus, UniProt Q02293+Q04631); test: Farnesyl-protein transferase inhibiting activity, scintillation proximity assay (SPA); assay type: biochemical, white rat; details: rat cerebrum FPTase, 3H-FPP, biotin-lamin B peptide; read-out: concentration required for inhibiting farnesyl protein transferase by 50%(IC50) (converted)
T1 construct: the cerebrum of a white rat(male Sprague Dowley weighing 100-150 g) was washed with physiological saline solution and homogenized; from tissue; host or cells: rat cerebrum (male Sprague Dawley)
Description: Farnesyl-protein transferase(FPTase) activity was determined in accordance with the scintillation proximity assay(SPA) method of Blown et al. described in Cell, 62, 1(1990) by using ^3H-farnesyl pyrophosphate(^3H-FPP) as a substrate.
First, the cerebrum of a white rat(male Sprague Dowley weighing 100-150 g) was washed with physiological saline solution and homogenized. The homogenized solution was centrifuged and partially purified by using Q sepharose fast flow column(Pharmacia, co.) to obtain famnesyl protein transferase(FPTase).
10 μl of 8-acetylarteminolide, 40 μl of FPTase obtained above, 10 μl of an assay buffer(50 mM Tris-HCl, pH 7.5, 25 mM MgCl2, 2 mM KCl, 5 mM DTT, 5 mM Na2HPO4, 0.01% Triton X-100), 20 μl of diluted ^3H-FPP and 20 μl of biotin-lamin B peptide were mixed together and the resulting mixture was reacted at room temperature for 30 minutes. 150 μl of SPA bead/stop reagent solution(Amersham, Inc. UK) was added to the mixture and the enzymatic activity was determined by examining the extent of biotin-lamin B peptide farneslyation, expressed by unit of count per minute(CPM), with a liquid scintillation counter.
The FPTase inhibiting activity was then calculated in accordance with the following equation: [formula] […]

[2] = test system: Human breast cancer cell line MCF-7; test: Cell-cycle inhibiting activity, propidium iodide FACS analysis; assay type: cell-based; details: for % of cells G0/G1 phase / % of cells G2/M phase / % of cells S phase: 7.5 μl of 5 mg/ml DMSO solution in 7.5 ml medium
Description: Human breast cancer cell line MCF-7(ATCC HTB-22) was divided into 7.5 ml portions of RPMI1640 culture medium(GIBCO BRL) kept in T25 flasks and incubated at 37° C. under an atmosphere containing 5% CO2 for 12 hours. Added to the cell cultures of one group of flasks was 7.5 μl of DMSO solution containing 5 mg/ml of 8-acetylarteminolide obtained in Example 1, while 7.5 μl of pure DMSO was added to the cultures of another group of flasks as a control, followed by incubation at 37° C. under an atmosphere containing 5% CO2 for 12, 24 and 36 hours, respectively.
To examine the activity of inventive compound in inhibiting the progression of the cell cycle, each of the cultures was treated with trypsin and centrifuged at 200×g for 5 minutes, and then, the cell precipitate was washed twice with cold PBS. 3 ml of 70% ethanol was added thereto and the resulting mixture was left standing at −20° C. for 12 hours to fix the cell. The resulting mixture was centrifuged at 200×g for 5 minutes and the cell precipitate was washed twice with PBS to remove remaining ethanol. Added to the cell precipitate in sequence were 1 ml of PBS and 50 μl RNase A solution(100 μg/ml). The mixture was reacted at 37° C. for 30 minutes and 10 μl of PBS containing 1 mg/ml of propidium iodide was added thereto.
The cell cycles of 20,000 stained cells were analyzed by using Becton-Dickinson FACS Calibur and Becton-Dickinson Modifit cell-cycle analysis program.

Angiogenesis = test: Angiogenesis-suppressing activity, chorioallantoic membrane(CAM) assay; assay type: in vivo; details: Gallus gallus; 10 μg/ml, CAM of fertilized chicken eggs
Description: Angiogenesis was determined in accordance with the chorioallantoic membrane(CAM) assay method described in Kusaka et al., Biochem. Biophy. Res. Comm., 174, 1070(1991), using fertilized chicken eggs.
A fertilized chicken egg(Pulmuwon co., Korea) was incubated at 37-38° C. and a humidity of more than 90%. Here, 0 day-embryo means that the fertilized egg had been stored at 18° C. for less than 4 days since laying.
The pointed end of the fertilized egg was scratched with a knife, laid horizontally, the scratched site was punctured with a 5 ml syringe and 2 ml of albumin was extracted from the fertilized egg. The puncture hole was then sealed with a glass-tape. The fertilized egg, positioned such that the sealed hole was at the bottom, was incubated under the same condition described above.
The end of the fertilized egg where the air sac is located, i.e., the end opposite to the hole site was opened, a window having a diameter of 2-3 cm was installed therein, the window was sealed with a glass-tape, and the incubation was resumed.
By this time, a CAM of 2-5 mm diameter had developed. 8-Acetylarteminolide was dissolved in ethanol to a concentration of 10 μg/ml, 10 μl of the solution was dropped on quartered Thermanox coverslip(Nunc, Co.,) and dried in a clean bench. […]
Angiogenesis suppressing activity was then calculated in accordance with the following equation: [formula]

[3] = Solubility (physicochemical properties)
[4] = test system: Human breast cancer cell line MCF-7; test: Cell-cycle inhibiting activity, propidium iodide FACS analysis; assay type: cell-based; details: MCF7, G2 to M phase progression, read-out: concentration required for inhibiting the progression of the cell cycle by 50%

C=C1C(=O)OC2C1CCC(C)(O)C13C=CC(C)(C21)C1(C3)C(=O)OC2C3C(C)=CC(=O)C3=C(C)CC(OC(C)=O)C21 (stereo not shown) [8-acetylarteminolide]
IC50 [1]: ~1820 nM and ~1800 nM and 1820 nM and 1800 nM | % of cells G0/G1 phase ([2]; MCF-7, 12 hours): 47.59% | % of cells G2/M phase ([2]; MCF-7, 12 hours): 18.06% | % of cells S phase ([2]; MCF-7, 12 hours): 34.35% | percentage of cells in the G2/M phase compared to the control cells ([2]; MCF-7, 24 hours): 10 fold | % of cells G0/G1 phase ([2]; MCF-7, 24 hours): 47.49% | % of cells G2/M phase ([2]; MCF-7, 24 hours): 27.97% | % of cells S phase ([2]; MCF-7, 24 hours): 24.54% | percentage of cells in the G2/M phase compared to the control cells ([2]; MCF-7, 36 hours): two-fold higher | % of cells G0/G1 phase ([2]; MCF-7, 36 hours): 73.2% | % of cells G2/M phase ([2]; MCF-7, 36 hours): 19.79% | % of cells S phase ([2]; MCF-7, 36 hours): 7.01% | inhibition at 10 µg/mL (Angiogenesis): 60% | Solubility Insoluble: ([3]; solvents in which insoluble): hexane, H2O | Solubility Soluble: ([3]; solvents in which soluble): alcohol, acetone, chloroform, DMSO | IC50 [4]: ~5 µg/mL (≈ 9.11 µM)

Source: patent US6387948B1, “8-Acetylarteminolide and process for preparing same” (Korea Research Institute of Bioscience and Biotechnology, priority 2000, dated 2002)
